{"source": "paper PMC4858680", "about": "“A platinum-based hybrid drug design approach to circumvent acquired resistance to molecular targeted tyrosine kinase inhibitors” (Scientific Reports, 2016)", "key": {"[1]": {"tested_on": "K562 Ima1.0", "assay": "Anticancer activity in imatinib-selected resistant K562 subline", "format": "cell-based", "settings": "read-out: Anticancer activity (IC50) K562 Imatinib selected (K562 Ima1.0); Bcr-Abl amplification"}, "[2]": {"biological_target": "T1, TIE1 (Homo sapiens, UniProt P35590)", "T1 construct": "purchased DiscoveRx (KINOMEscan service)", "T1 sequence (P35590 22-1138)": "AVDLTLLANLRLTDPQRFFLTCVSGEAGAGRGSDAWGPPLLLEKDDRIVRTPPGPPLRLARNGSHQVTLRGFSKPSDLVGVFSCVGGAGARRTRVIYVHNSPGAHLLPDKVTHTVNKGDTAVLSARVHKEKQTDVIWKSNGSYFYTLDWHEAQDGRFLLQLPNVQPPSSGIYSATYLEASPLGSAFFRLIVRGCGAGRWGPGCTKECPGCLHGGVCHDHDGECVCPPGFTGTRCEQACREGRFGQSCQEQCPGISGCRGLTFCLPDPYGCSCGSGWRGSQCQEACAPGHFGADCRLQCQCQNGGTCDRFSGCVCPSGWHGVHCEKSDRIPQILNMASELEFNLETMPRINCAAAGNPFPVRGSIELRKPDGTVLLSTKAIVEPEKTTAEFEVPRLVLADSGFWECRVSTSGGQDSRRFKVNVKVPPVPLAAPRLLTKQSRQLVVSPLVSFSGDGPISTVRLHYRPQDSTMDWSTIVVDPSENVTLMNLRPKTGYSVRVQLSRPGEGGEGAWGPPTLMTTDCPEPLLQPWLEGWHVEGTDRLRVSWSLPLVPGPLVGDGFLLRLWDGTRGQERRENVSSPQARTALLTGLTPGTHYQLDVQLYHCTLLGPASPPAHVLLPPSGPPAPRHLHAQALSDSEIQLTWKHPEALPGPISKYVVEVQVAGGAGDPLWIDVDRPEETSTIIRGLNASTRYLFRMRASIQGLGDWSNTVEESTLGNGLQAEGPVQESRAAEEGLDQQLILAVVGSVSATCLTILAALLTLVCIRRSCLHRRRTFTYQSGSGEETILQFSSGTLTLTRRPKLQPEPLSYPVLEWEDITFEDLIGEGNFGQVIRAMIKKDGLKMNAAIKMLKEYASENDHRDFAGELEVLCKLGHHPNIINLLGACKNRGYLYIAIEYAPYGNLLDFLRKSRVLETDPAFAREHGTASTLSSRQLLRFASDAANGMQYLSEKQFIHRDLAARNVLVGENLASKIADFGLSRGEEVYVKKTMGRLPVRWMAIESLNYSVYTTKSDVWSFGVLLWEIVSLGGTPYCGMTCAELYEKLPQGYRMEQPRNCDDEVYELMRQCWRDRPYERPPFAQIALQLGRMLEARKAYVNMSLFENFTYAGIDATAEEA", "format": "binding", "settings": "10 μM"}, "[3]": {"biological_target": "EGFR(L858R) (Homo sapiens, UniProt P00533, L858R)", "sequence (P00533 25-1210 L858R)": "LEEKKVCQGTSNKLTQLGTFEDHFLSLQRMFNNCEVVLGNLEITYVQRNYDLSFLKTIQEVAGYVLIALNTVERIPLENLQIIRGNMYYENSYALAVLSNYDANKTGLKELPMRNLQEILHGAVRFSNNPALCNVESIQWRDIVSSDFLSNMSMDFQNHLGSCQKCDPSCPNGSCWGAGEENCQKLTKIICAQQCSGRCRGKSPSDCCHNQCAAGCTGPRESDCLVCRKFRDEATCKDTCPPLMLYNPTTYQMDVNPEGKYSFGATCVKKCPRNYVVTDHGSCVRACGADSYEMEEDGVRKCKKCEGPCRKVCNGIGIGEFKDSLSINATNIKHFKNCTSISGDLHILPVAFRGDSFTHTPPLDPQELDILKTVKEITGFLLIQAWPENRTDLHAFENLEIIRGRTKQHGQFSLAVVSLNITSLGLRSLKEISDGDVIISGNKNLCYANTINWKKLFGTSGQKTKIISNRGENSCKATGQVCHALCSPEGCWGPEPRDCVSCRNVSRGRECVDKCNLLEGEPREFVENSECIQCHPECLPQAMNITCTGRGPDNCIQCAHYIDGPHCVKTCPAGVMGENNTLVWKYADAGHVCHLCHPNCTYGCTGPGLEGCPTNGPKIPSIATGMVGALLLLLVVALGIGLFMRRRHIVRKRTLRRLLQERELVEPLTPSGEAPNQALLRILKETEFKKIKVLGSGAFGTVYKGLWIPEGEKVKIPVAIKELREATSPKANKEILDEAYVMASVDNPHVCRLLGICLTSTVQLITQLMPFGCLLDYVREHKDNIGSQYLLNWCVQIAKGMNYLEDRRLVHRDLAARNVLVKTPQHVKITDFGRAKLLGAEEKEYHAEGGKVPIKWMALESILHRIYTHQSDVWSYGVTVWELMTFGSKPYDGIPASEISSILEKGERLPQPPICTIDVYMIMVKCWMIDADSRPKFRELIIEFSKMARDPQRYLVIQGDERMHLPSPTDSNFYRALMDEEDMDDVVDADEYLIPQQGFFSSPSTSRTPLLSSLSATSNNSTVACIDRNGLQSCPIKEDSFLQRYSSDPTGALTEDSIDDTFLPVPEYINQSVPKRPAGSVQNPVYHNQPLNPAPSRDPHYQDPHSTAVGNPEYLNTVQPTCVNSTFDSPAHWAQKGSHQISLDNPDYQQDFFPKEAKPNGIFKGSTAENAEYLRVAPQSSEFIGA", "settings": "10 μM"}, "[4]": {"biological_target": "EGFR(T790M) (Homo sapiens, UniProt P00533, T790M)", "sequence (P00533 25-1210 T790M)": "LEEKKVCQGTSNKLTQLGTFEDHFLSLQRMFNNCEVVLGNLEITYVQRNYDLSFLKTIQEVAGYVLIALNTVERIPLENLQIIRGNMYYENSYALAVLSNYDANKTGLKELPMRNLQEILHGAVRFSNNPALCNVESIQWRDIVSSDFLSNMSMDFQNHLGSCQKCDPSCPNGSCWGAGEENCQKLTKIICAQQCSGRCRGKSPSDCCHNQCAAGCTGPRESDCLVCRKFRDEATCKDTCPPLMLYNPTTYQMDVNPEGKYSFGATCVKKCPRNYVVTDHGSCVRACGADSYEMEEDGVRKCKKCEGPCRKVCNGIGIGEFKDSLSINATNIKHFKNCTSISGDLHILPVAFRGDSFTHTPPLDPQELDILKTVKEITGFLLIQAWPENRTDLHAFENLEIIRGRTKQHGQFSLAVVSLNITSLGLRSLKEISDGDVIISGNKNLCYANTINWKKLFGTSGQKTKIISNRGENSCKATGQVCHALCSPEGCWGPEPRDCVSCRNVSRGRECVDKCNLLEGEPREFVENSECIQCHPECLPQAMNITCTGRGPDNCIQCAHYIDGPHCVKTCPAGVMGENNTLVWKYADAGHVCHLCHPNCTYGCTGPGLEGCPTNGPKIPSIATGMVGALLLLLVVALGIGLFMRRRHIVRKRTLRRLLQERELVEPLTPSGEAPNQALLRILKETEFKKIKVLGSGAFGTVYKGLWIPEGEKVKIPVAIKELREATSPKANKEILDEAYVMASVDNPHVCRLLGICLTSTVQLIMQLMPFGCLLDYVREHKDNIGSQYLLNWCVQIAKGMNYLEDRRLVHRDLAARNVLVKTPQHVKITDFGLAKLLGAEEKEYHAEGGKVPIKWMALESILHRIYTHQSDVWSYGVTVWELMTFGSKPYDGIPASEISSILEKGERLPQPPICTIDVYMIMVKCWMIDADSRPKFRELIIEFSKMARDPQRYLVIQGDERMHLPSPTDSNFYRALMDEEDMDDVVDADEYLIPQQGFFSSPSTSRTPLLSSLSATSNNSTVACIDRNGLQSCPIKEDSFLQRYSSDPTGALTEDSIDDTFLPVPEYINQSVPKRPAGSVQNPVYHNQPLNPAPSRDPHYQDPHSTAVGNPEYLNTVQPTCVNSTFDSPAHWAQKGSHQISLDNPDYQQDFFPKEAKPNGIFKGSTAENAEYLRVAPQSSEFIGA", "settings": "10 μM"}, "[5]": {"biological_target": "P-gp (MDCKII–P-gp) (Homo sapiens, UniProt P08183)", "sequence (P08183 whole entry)": "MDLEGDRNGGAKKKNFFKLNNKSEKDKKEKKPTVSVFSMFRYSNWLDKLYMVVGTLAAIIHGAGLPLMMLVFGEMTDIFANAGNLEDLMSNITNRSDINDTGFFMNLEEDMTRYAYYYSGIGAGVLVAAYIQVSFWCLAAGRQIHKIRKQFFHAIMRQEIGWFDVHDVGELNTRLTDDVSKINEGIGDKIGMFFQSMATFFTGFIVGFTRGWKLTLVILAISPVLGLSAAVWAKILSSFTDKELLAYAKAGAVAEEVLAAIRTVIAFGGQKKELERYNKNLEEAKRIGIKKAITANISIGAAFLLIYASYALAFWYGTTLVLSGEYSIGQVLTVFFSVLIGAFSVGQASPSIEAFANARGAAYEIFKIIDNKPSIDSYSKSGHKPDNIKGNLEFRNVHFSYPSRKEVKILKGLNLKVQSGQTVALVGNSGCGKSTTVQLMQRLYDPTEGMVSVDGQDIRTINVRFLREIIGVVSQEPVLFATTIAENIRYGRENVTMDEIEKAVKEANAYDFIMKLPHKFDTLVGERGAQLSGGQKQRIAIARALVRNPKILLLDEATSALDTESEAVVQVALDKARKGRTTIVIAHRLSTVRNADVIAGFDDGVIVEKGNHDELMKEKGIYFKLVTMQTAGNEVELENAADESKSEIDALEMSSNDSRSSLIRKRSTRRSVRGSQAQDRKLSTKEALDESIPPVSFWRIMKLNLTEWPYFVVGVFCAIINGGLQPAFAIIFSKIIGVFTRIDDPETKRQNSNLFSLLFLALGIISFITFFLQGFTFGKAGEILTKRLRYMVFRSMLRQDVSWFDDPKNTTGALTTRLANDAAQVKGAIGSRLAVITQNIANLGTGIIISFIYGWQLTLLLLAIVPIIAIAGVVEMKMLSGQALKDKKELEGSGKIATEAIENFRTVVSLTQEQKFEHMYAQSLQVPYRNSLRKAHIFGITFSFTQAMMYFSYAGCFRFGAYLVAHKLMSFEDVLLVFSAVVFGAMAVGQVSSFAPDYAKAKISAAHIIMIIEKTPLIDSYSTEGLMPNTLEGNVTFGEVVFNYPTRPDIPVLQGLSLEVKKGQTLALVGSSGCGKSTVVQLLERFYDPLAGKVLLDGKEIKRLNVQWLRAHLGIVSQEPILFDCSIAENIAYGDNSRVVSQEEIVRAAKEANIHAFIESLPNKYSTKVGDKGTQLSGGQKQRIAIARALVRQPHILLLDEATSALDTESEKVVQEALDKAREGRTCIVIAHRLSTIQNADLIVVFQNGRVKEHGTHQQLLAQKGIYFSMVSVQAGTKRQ", "settings": "10 μM, mean of three experiments"}, "[6]": {"biological_target": "ABL1(E317I)-nonphosphorylated (Homo sapiens, UniProt P00519, F317I)", "settings": "10 μM"}, "[7]": {"biological_target": "ABL1(M351T)-phosphorylated (Homo sapiens, UniProt P00519, M351T)", "settings": "10 μM"}, "[8]": {"biological_target": "ABL1(T315I)-phosphorylated (Homo sapiens, UniProt P00519, T315I)", "settings": "10 μM"}, "[9]": {"biological_target": "T2, FLT3(N841I) (Homo sapiens, UniProt P36888, N841I)", "T2 sequence (P36888 27-993 N841I)": "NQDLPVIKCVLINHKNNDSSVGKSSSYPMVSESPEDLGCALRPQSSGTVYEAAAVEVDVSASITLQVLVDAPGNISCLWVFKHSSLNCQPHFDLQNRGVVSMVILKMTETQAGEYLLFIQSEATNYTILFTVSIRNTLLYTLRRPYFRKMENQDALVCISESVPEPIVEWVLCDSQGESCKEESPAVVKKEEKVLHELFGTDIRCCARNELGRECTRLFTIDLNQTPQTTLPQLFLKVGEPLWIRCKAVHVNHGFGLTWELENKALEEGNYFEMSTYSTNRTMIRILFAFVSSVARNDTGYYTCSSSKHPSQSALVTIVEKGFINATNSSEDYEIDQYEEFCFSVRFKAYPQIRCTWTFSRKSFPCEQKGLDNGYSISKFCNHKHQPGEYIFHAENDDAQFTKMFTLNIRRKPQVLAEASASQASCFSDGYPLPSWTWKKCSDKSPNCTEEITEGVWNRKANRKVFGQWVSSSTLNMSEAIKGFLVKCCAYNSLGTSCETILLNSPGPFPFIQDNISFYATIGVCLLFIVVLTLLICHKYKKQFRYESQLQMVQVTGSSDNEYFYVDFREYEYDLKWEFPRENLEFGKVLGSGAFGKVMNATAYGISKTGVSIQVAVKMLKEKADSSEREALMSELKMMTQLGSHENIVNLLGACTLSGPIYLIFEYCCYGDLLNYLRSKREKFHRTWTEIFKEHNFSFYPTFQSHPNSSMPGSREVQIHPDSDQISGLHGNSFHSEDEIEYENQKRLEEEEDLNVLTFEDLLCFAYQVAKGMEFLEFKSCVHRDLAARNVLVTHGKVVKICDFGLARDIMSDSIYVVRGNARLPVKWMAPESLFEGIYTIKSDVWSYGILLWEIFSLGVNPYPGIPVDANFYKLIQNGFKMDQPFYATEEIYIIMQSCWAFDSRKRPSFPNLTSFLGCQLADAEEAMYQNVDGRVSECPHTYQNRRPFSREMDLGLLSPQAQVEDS", "assay": "biochemical", "settings": "read-out: Percent control"}, "[10]": {"biological_target": "T3, AXL (Homo sapiens, UniProt P30530)", "T3 sequence (P30530 26-894)": "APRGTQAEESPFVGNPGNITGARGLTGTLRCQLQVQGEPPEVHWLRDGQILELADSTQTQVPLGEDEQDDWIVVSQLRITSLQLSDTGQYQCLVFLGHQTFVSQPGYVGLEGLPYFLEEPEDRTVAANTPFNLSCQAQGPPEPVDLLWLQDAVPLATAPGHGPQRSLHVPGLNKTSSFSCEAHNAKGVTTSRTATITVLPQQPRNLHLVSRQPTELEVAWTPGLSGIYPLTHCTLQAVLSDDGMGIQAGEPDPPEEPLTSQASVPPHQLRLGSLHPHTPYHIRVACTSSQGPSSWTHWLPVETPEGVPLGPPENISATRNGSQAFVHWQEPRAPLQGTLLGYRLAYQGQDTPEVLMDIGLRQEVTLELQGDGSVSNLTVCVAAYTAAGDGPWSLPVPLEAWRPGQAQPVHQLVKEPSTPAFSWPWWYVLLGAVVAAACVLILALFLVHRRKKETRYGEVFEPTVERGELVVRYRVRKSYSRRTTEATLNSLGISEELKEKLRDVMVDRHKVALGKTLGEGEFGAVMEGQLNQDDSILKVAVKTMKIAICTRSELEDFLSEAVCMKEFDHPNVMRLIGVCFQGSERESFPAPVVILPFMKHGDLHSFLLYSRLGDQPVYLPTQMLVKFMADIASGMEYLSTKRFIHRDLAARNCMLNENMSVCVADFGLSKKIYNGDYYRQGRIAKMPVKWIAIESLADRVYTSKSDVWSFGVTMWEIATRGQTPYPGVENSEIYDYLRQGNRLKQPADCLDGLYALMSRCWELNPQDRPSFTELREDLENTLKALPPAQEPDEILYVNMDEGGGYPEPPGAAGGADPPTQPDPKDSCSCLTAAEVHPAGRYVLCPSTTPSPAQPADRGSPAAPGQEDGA", "assay": "biochemical", "settings": "read-out: Percent control"}, "[11]": {"biological_target": "TIE2 (Homo sapiens, UniProt Q02763)", "assay": "biochemical", "settings": "read-out: Percent control"}}, "data": [{"smiles": "Cc1ccc(NC(=O)c2ccc(CN3CCN(C)CC3)cc2)cc1Nc1nccc(-c2cccnc2)[n+]1[Pt-2]1([Cl])[NH2+]C2CCCCC2[NH2+]1", "note": "(stereo not drawn) [1b, oxaliplatin-imatinib]", "values": [{"measurement": "IC50", "setting": "[1]", "result": "2.92 ± 0.93", "unit": "µM"}, {"measurement": "Percent control", "setting": "[2]", "result": 100, "unit": "%"}, {"measurement": "Percent control", "setting": "[3]", "result": 81, "unit": "%"}, {"measurement": "Percent control", "setting": "[4]", "result": 78, "unit": "%"}]}, {"smiles": "C#Cc1cccc(Nc2c3cc(OCCOC)c(OCCOC)cc3nc[n+]2[Pt@SP2-2]([NH3+])([NH3+])[Cl])c1", "note": "[2a, cisplatin-erlotinib]", "values": [{"measurement": "A to B transport (apparent permeability)", "setting": "[5]", "result": "3.32 × 10^−6"}, {"measurement": "B to A transport (apparent permeability)", "setting": "[5]", "result": "2.82 × 10^−6"}, {"measurement": "Percent control", "setting": "[6]", "result": 83, "unit": "%"}, {"measurement": "Percent control", "setting": "[7]", "result": 15, "unit": "%"}, {"measurement": "Percent control", "setting": "[8]", "result": 30, "unit": "%"}]}, {"smiles": "C#Cc1cccc(Nc2ncnc3cc(OCCOC)c(OCCOC)cc23)c1", "note": "[Erlotinib]", "values": [{"measurement": "remaining activity at 10 µM", "setting": "[9]", "result": 4.8, "unit": "%"}]}, {"smiles": "COc1cc2c(Nc3ccc(Br)cc3F)ncnc2cc1OCC1CCN(C)CC1", "note": "[Vandetanib, reference compound]", "values": [{"measurement": "remaining activity at 10 µM", "setting": "[10]", "result": 2.4, "unit": "%"}, {"measurement": "remaining activity at 10 µM", "setting": "[11]", "result": 9.1, "unit": "%"}]}]}
